Among the data in BindingDB's records for patent US20240115574 (The Johns Hopkins University, 2024) are IC50 values, retold here.

The structures appear in SMILES notation.

The assay addresses T1, Sphingomyelin phosphodiesterase 3 (Homo sapiens, UniProt Q9NY59).
T1 sequence (Q9NY59 whole entry): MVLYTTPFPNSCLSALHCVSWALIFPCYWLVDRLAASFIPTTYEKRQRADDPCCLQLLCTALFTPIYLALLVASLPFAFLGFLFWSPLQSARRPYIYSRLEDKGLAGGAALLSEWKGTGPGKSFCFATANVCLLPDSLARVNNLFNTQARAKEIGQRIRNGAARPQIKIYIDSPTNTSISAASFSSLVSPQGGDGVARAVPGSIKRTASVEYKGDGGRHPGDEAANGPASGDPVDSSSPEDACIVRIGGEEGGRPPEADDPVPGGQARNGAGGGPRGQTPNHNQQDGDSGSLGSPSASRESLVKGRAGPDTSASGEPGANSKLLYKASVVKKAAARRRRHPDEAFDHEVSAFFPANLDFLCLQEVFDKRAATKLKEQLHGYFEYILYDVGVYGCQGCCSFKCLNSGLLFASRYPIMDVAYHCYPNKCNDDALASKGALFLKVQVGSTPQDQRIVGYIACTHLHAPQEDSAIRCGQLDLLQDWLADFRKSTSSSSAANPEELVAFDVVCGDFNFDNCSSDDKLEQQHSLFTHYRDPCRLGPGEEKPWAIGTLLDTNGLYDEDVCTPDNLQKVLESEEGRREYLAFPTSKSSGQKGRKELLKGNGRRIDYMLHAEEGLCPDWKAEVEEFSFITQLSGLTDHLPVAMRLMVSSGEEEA
The experiment in a line: Not found.
From the text: Not found

Usually IC50 stands for the midpoint of a concentration-inhibition curve. A high value points to weaker potency. For `COc1ccc(-n2cnc3c(N4CC[C@@H](NC(C)=O)C4)ncnc32)cc1OC` [US20240115574, Entry 6-PROV], the IC50 was more than 100 µM.

As for `COc1ccc(-c2c(C)nn3c(N4CC[C@@H](NC(C)=O)C4)nc(C)nc23)cc1OC` [US20240115574, Entry 36-PROV], the 50% inhibitory concentration (IC50) was more than 100 µM. `COc1ccc(-n2c(C)nc3c(N4CC[C@@H](NC(C)=O)C4)ncnc32)cc1OC` [US20240115574, Entry 5-PROV]: the IC50 was more than 100 µM.

The compound `COc1ccc(-n2cnc3c(N4CC[C@@H](NC(C)=O)C4)nc(C)nc32)cc1OC` [US20240115574, Entry 2-PROV] returned an IC50 of more than 100 µM. For `COc1ccc(-n2ncc3c(N4CC[C@@H](NC(C)=O)C4)nc(C)nc32)cc1OC` [US20240115574, Entry 10-PROV] the value was more than 100 µM; for `COc1ccc(-c2nn(C)c3c(N4CC[C@@H](NC(C)=O)C4)nc(C)nc23)cc1OC` [US20240115574, Entry 13-PROV], more than 100 µM. Consider `COc1ccc(-c2c(C)nn3c(N4CC[C@@H](NC(C)=O)C4)cc(C)nc23)cc1OC` [US20240115574, Entry 7-PROV], for which the IC50 is more than 100 µM. `COc1ccc(-c2c3nc(C)nc(N4CC[C@@H](NC(C)=O)C4)c3nn2C)cc1OC` [US20240115574, Entry 12-PROV] registered an IC50 of more than 100 µM.
